We go through one molecule from patent US7192607B2, “Formulations for the prevention or the treatment of diseases affecting mucosae or skin, or for pregnancy prevention, and an applicator for the delivery of topical formulations into mucosal cavities” (Infectio Recherche Inc, priority 2002, dated 2007).

Molecules are shown by their SMILES. Values joined by “and” are separate entries in the source; they are usually repeats but may differ in a detail not shown here. Equal values may be shown once. Read-outs that look alike come from different tables or passages of the source.

The test system of test [1] is HSV-1 (strain F). The experiment in a line: Infectivity of HSV-1 (strain F) to Vero cells after treatment with SLS or DS (plaque forming units). Type of test: cell-based, Herpes simplex virus type-1. As to conditions: for IC50: Human alphaherpesvirus 1, Vero, FIG. 1, read-out: concentration giving a loss of 50% of the viral infectivity. The protocol:
(§1) The effect of pretreating different strains of herpes viruses with SLS or DS on their viral infectivities to susceptible cells has been evaluated. In brief, cells were seeded in 24 well-plates (Costar, Montreal, QC, Canada). Prior to infection, the virus was either suspended in culture medium or phosphate buffered saline (PBS), or incubated with different concentrations of SLS in PBS for 1 h at 37° C. At confluency, cells were incubated with viral suspensions by centrifuging the plates (750× g for 45 min at 20° C.) to allow virus adsorption. Virus was removed and cell sheets were then overlaid with 0.5 ml of 0.6% agarose Seaplaque (Marine Colloids, Rockland, Md.) prepared in appropriate culture medium. The plates were incubated for 2 days at 37° C. Cells were then fixed with 10% formaldehyde in PBS for 20 min, washed with deionized water and stained with 0.05% methylene blue. Viral infectivity was evaluated via the determination of Plaque Forming Units (PFU).
HSV-1 (strain F) infectivity was reduced to 21% when viral particles were pretreated with 25 μM SLS. The infectivities of all HSV-2 strains were between 50 to 70% following preincubation with 25 μM SLS. A complete loss of the infectivity of all strains tested were obtained following pretreatment of the viruses with 50 μM SLS.
When SLS was immediately added to Vero cells following their infection, the loss of viral infectivity was less dramatic compared to that obtained for virus pretreated for 1 h at 37° C. with the same SLS concentrations. […] Similarly, pretreatment of the HSV-2 (strain 333) with SLS also influenced the infectivity of this strain (data not shown). On the other hand, DS reduces the infectivity of the virus independent of whether the virus was pretreated with DS.

The next test has as its system HSV-2 (333). The experiment in a line: Infectivity of HSV-2 (333) pretreated with SLS on Vero cells (PFU). Type of test: cell-based, Herpes simplex virus type-2. The protocol:
as §1

Test [2] has as its system HSV-1 (strain F). In words: Electron microscopy of Vero cells infected with HSV-1 (strain F) pretreated with SLS. Type of test: cell-based, Herpes simplex virus type-1. The procedure:
The appearance of HSV-1 (strain F) pretreated with varying SLS concentrations (50, 75 and 100 μM) for 1 h at 37° C. has been evaluated in Vero cells using electron microscopy. In brief, cells (80–90% confluent) were infected with the virus (approximately 70 PFU/ml in 14 ml) for 48 h at 37° C. in a 5% CO2 atmosphere. Cells were scrapped off from the dishes and resuspended in culture medium. Cells were centrifuged (515× g for 10 min at 4° C.) and the supernatant was decanted and cells were resuspended in approximately 500 μl medium. Cells were transferred in an eppendorf tube and centrifuged at (10,000× g for 5 min at 4° C.). The pellet was resuspended in approximately 200 μl of 20% bovine serum albumin (BSA). Few drops of 25% glutaraldehyde were added to the mixture and samples were immediately put in an ice bath to allow BSA polymerization. The pellet was then cut in 1 mm^3 samples which were then fixed in 2% glutaraldehyde in PBS for 1 h, 1% OsO4 in PBS for 1 h and then with 0.1% tannic acid in PBS for 30 min. Samples were rinsed 3 times in PBS for 5 min between each step. Samples were stained with 2% uranyl acetate in 10% ethanol for 30 min. Samples were dehydrated and embedded in Epon following routine procedures. Sections (approximately 75 nm thickness) were mounted on copper grid (200 mesh). […]

The test system of test [3] is glycoprotein D gene of HSV-1 (strain F). The experiment in a line: Quantification of HSV glycoprotein D gene in Vero cells infected with pretreated virus (hybridization, densitometry). As to conditions: 48 h infection. The class given is cell-based, Herpes simplex virus type-1. The protocol: The quantification of the glycoprotein D gene of HSV-1 (strain F) pretreated with SLS was also evaluated in Vero cells in order to determine the presence of viral DNA in the infected cells. In brief, HSV-1 (strain F) was pretreated with varying SLS concentrations (12.5, 25, 50, 75 and 100 μM) in EMEM +2% FBS for 1 h at 37° C. Vero cells (80–90% confluent) were infected with the virus (100 PFU/ml in 20 ml) for 48 h at 37° C. in a 5% CO2 atmosphere. The culture medium was removed and cell sheet was washed twice with 1× HBSS. Cells were scrapped off from the dishes and resuspended in EMEM +2% FBS. Total DNA was extracted using a standard phenol/chloroform procedure. Quantitation of total DNA was achieved using the Burton procedure. The probe used for this study corresponds to a part of glycoprotein D of HSV-2 (strain 333), generated by PCR using the following primers: • P1 (5′-[…]-3′) and • P2 (5′-[…]-3′) and was [^32P]-labeled by random priming. Hybridization was performed at 65° C. in 0.25 M Na2HPO4 (pH 6.8 with orthophosphoric acid) and 7% SDS. Washes were done in 40 mM Na2HPO4 (pH 6.8 with orthophosphoric acid) and 1% SDS for 20 min at 65° C. followed by 20 min at 25° C.
Following a 48 h incubation, cells were collected and total DNA was extracted. […] Quantitative measurements of HSV-1 DNA levels obtained by scanning densitometry of the autoradiogram were similar (Panel B).

The subject of the next test is HSV-2 (strain 22). The experiment in a line: Murine intranasal infection model, HSV-2 pretreated with SLS. The class given is in vivo, Balb/c mice. The protocol:
The effect of pretreating HSV-2 (strain 22) with SLS on viral infectivity has also been evaluated in a murine intranasal infection model. In brief, female Balb/c mice (Charles River Breeding Laboratories Inc., St-Constant, QC, Canada) 4 weeks-old were used throughout this study. Prior to the infection, HSV-2 (strain 22) was incubated for 1 h at 37° C. with PBS or with different concentrations of SLS (6.25, 25 or 100 μM) to reach a final viral inoculum of 2,000 PFU/20 μl. Mice were slightly anesthetized using Aerrane® (Isoflurane, USP; Janssen, North York, ON, Canada) and viral suspension (20 μl total volume) was applied into the external left nare of mice. Mice were then returned to their cages and survival was evaluated daily.

Test [4] has as its system HSV-1 (strain F). In words: Infectivity of HSV-1 (strain F) to Vero cells after treatment with SLS or DS (plaque forming units). As to conditions: Vero cells preincubated 1 h at 37° C. with 6.25 to 100 μM SLS prior to infection; data not shown. The class given is cell-based, Herpes simplex virus type-1.
The mark [5] stands for this setting: virus pretreated with 6.25 μM SLS for 1 hour at 37° C.
Where [6] appears, read: virus pretreated with 12.5 μM SLS for 1 hour at 37° C.
Where [7] appears, read: virus pretreated with 50 μM SLS for 1 hour at 37° C.
The mark [8] stands for this setting: virus pretreated with 100 μM SLS for 1 h at 37° C.
[9] abbreviates: viral suspension pretreated with 100 μM SLS.

With `CCCCCCCCCCCCOS(=O)(=O)[O-].[Na+]` [SLS, Sodium lauryl sulfate], the “inhibition of viral infectivity” value was “not complete” in the test with HSV-1 (strain F) [1] (100 μM SLS without pretreatment) and “complete inhibition” with HSV-1 (strain F) [1] (preincubation of virus with 50 μM SLS). Also, the IC50 in the test on HSV-1 (strain F) [1] (virus not pretreated (added without pretreatment)) amounted to 75 µM; with HSV-1 (strain F) [1] (virus pretreated for 1 h at 37° C.), 20 µM. For the same molecule, the “PFU (% of control) for HSV-1 (F)” value with HSV-1 (strain F) [1] (setting [5]) is 101.1 ± 7.0 % of control; in the test with HSV-1 (strain F) [1] (setting [6]), 79.2 ± 36.4 % of control; with HSV-1 (strain F) [1] (virus pretreated with 25 μM SLS for 1 hour at 37° C., sulfate) it was 21 % of control and 21.2 ± 18.0 % of control; with HSV-1 (strain F) [1] (setting [7]) it was 0 % of control. The “PFU (% of control) for HSV-2 (333)” value is recorded as 102.9 ± 23.5 % of control with HSV-2 (333) (setting [5]), 115.4 ± 17.0 % of control with HSV-2 (333) (setting [6]), 72.9 ± 9.1 % of control in the test on HSV-2 (333) (virus pretreated with 25 μM SLS for 1 hour at 37° C.) and 0 % of control in the test with HSV-2 (333) (setting [7]). Moreover, the “cells with empty capsids in the nuclei (electron microscopy)” value in the test with HSV-1 (strain F) [2] (setting [8]) is recorded as “only a few cells with empty capsids in the nuclei could be detected”. Moreover, the “appearance of viral particles in infected Vero cells (electron microscopy)” value in the test with HSV-1 (strain F) [2] (virus pretreated with 50, 75 and 100 μM SLS for 1 h at 37° C.) is reported as “No mature nucleocapsid could be observed”. Besides, the “HSV-1 DNA levels (glycoprotein D gene)” value in test [3] (virus pretreated with 75 μM SLS for 1 h at 37° C.) was 65.1 % of control values; in test [3] (setting [8]), 34.9 % of control values. In addition, the “expression of the glycoprotein D gene compared to control” value in test [3] (virus pretreated with 12.5, 25 and 50 μM SLS for 1 h at 37° C.) was “No major modification”. For the same molecule, the “mice that survived the infection” value was 67% in the test on HSV-2 (strain 22) (viral inoculum pretreated with 6.25 μM SLS), 67% with HSV-2 (strain 22) (viral inoculum pretreated with 25 μM SLS) and “all” in the test on HSV-2 (strain 22) (setting [9]). Further, the signs of illness result with HSV-2 (strain 22) (setting [9]) is recorded as “did not demonstrate any sign of illness”. The “infectivity of HSV-1 (strain F) after preincubation of Vero cells (not virus) with SLS” value in the test on HSV-1 (strain F) [4] is “did not result in a loss of infectivity”.
